Results: US11351129B2, “Systems and methods for treating vitiligo” (Transdermal Biotechnology, Inc., priority 2016, dated 2022)

System: vitiligo depigmented area of skin
Experiment: Two month study of topically applied sodium pyruvate in subjects with vitiligo (photographs, DSMII Colorimeter erythema and melanin, clinical evaluations)
Format: in vivo, human
Conditions: for average erythema colorimetric measurement: DSMII Colorimeter, 0.2% phase
Text: Subjects were 18 years of age and older. A medical history form and this consent statement were provided to them to read, review, and complete. They had no other systemic or dermatological disease present that would interfere with the integrity of this study. Subjects were in good health as determined by the medical history. After all their questions were answered and they decided to participate in the study they were asked to sign the informed consent statement. 5 subjects were studied as follows:
Subjects were dispensed two (2) tubes of test products. One was labeled HNC 180-100-A (0.05%) and the other labeled as HNC 180-100-B (0.1%). Subjects were instructed to use these products sparingly and make applications twice daily, morning, and evening. Applications were made only to the areas designated for treatment.
The sodium pyruvate dosage was increased to 0.2% after the initial eight week study was completed. Subjects were dispensed HNC-180-12 for this phase.
This was a two (2) month study that involved five (5) subjects. Test sessions lasted approximately ½ hour per visit. There were […] scheduled visits. The first was on Day 1 (Baseline), and then at 1, 2, 4, 6 and 8 weeks.
At the end of the 8 weeks all subjects were invited to continue for further study. Four of the subjects elected to continue.
Prior to any study procedures being performed subjects were given an informed consent statement to read, review, and sign. A body map assessment of the vitiligo depigmented area was made and the target areas of treatment were photographed for the baseline record. Colorimetric measurements of the skin were done employing a DSMII Colorimeter. This instrument produced a read-out of erythema and melanin based on the light absorption characteristics of human skin. Subjects reported to the clinic for additional photographs, colorimeter measurements, and clinical evaluations at each scheduled visit.

Q: How did the “increase in pigment in vitiliginous areas, subjects showing it” value (5 subjects with vitiligo, topical, twice daily, 0.05% and 0.1% for 8 weeks, then 0.2%) turn out when `CC(=O)C(=O)[O-].[Na+]` [sodium pyruvate] was run?
A: Its value is 4 out of the 5.

Q: And the irritation (concentration of sodium pyruvate increased to 0.2% after 8 weeks, topical)?
A: The irritation was “increased irritation”.

Q: And the appearance of vitiligo (topically applied)?
A: The appearance of vitiligo was “effective in reducing the appearance of vitiligo”.

Q: And the “average erythema colorimetric measurement” value (week 12)?
A: Its value is 15.80 arbitrary units.

Q: What about the “average erythema colorimetric measurement” value (week 16) of the same compound?
A: Its value is 15.71 arbitrary units.
